Where “and” joins values, the source holds several entries; their conditions need not be identical. Identical values can stand only once. Like-named read-outs stand apart in the source and are kept apart here.
Columns and labels:
guinea pig lung slices = assay: Methacholine-induced airway constriction in guinea pig lung slices; assay type: cell-based; settings: for MCh-induced airway constriction response (Figure 5D): Exp1-6; for EC50: Cavia porcellus
Method: All curve fits were generated using the software program GraphPad Prism. Data are represented as mean ± SEM obtained from 6 guinea pigs.
(§1) Precision-cut lung slices were prepared as described previously ([61], [62]). A 3% solution of low melting-point agarose (Gerbu Biotechnik GmbH) in ultrapure water was prepared by heating it a microwave until fully dissolved. […] After filling, the lungs were covered with ice for 30 minutes to solidify the agarose for slicing. […] Lung slices were cut at a thickness of 500 μm and washed several times with slicing buffer to remove debris and washout the isoproterenol. Slices were incubated overnight in a 60 mm dish in sterile incubation buffer: MEM composed of lung slice buffer supplemented with 0.5 mM sodium pyruvate, 1 mM glutamine (Gibco), MEM-amino acids mixture (1:50), MEM-vitamins mixture (1:100; Gibco), and penicillin-streptomycin (1:100; Gibco), pH = 7.2, at 37°C in a CO2- and humidity-controlled atmosphere.
(§2) After washing the slices in medium, individual guinea pig lung slices were mechanically maintained with a Teflon ring with an inner diameter of 7 mm and covered with 1 mL of incubation buffer. […] Image acquisition software (NIS-Elements, Nikon) was used to quantify airway luminal area. Images of the airways were acquired every 2 seconds during the whole course of the experiment, starting 2 minutes before the addition of any agent to allow for baseline measurements of the airway caliber. For each methacholine or ovalbumin concentration, the maximal airway constriction was expressed as percentage of the initial (baseline) airway luminal area and plotted against that concentration.

[1] = tested on: lung slices obtained from ovalbumin-sensitized guinea pigs; assay: Ovalbumin-induced airway constriction in lung slices from ovalbumin-sensitized guinea pigs; assay type: cell-based, guinea pig; settings: Exp1-5
Excerpt: All curve fits were generated using the software program GraphPad Prism. Data are represented as mean ± SEM of 4–5 guinea pigs (see Table 2 for statistical analyses).
Outbred, male, specified pathogen-free Dunkin Hartley guinea pigs (Charles River Laboratory) weighing 200 to 400 g were used. The animals were housed in pairs under a 12-hour light/dark cycle in a temperature- and humidity-controlled room with food and tap water ad libitum. For studies in the guinea pig model of allergic asthma, animals were actively IgE-sensitized to ovalbumin by injecting a suspension containing 100 μg/mL ovalbumin and 100 mg/mL Al(OH)3 in saline. Each animal was injected with 1.0 mL of suspension: 0.5 mL was injected i.p. and 0.5 mL was divided over 7 s.c. sites close to lymph nodes in the neck, paws, and lumbar regions ([24]). Animals were euthanized at least 4 weeks after sensitization.
as §1, §2

[2] = 10 µM Fenoterol, -Log [MCh] 6.5
[3] = 10 µM Fenoterol, -Log [MCh] 7.5

CC(Cc1ccc(O)cc1)NCC(O)c1cc(O)cc(O)c1 (centres unmarked) [Fenoterol, fenoterol]
airway area in MCh concentration-response (Figure 5A/5C) (guinea pig lung slices; 1 µM Fenoterol, -Log [MCh] 2.5): 0.0
airway area in MCh concentration-response (Figure 5A/5C) (guinea pig lung slices; 1 µM Fenoterol, -Log [MCh] 3): 0.0
airway area in MCh concentration-response (Figure 5A/5C) (guinea pig lung slices; 1 µM Fenoterol, -Log [MCh] 3.5): 0.0
airway area in MCh concentration-response (Figure 5A/5C) (guinea pig lung slices; 1 µM Fenoterol, -Log [MCh] 4): 0.0
airway area in MCh concentration-response (Figure 5A/5C) (guinea pig lung slices; 1 µM Fenoterol, -Log [MCh] 4.5): 0.0
airway area in MCh concentration-response (Figure 5A/5C) (guinea pig lung slices; 1 µM Fenoterol, -Log [MCh] 7): 100.3 and 103.0 and 66.3 and 92.9 and 96.6
airway area in MCh concentration-response (Figure 5A/5C) (guinea pig lung slices; 1 µM Fenoterol, -Log [MCh] 7.5): 101.4 and 100.4 and 106.4 and 96.3
airway area in MCh concentration-response (Figure 5A/5C) (guinea pig lung slices; 1 µM Fenoterol, -Log [MCh] 8): 99.1 and 105.8 and 109.5 and 112.9
airway area in MCh concentration-response (Figure 5A/5C) (guinea pig lung slices; [2]): 59.0 and 89.4 and 82.6 and 83.1 and 91.0 and 74.6
MCh-induced airway constriction response (Figure 5D) (guinea pig lung slices; [2]): 59.0 and 89.4 and 82.6 and 83.1 and 91.0 and 74.6
airway area in MCh concentration-response (Figure 5A/5C) (guinea pig lung slices; 10 µM Fenoterol, -Log [MCh] 7): 77.1 and 109.6 and 109.2 and 101.3 and 91.9
MCh-induced airway constriction response (Figure 5D) (guinea pig lung slices; 10 µM Fenoterol, -Log [MCh] 7): 77.1 and 109.6 and 109.2 and 101.3 and 91.9
airway area in MCh concentration-response (Figure 5A/5C) (guinea pig lung slices; [3]): 94.2 and 110.7 and 102.7 and 105.1
MCh-induced airway constriction response (Figure 5D) (guinea pig lung slices; [3]): 94.2 and 110.7 and 102.7 and 105.1
airway area in MCh concentration-response (Figure 5A/5C) (guinea pig lung slices; 10 µM Fenoterol, -Log [MCh] 8): 106.3 and 110.5 and 104.8
MCh-induced airway constriction response (Figure 5D) (guinea pig lung slices; 10 µM Fenoterol, -Log [MCh] 8): 106.3 and 110.5 and 104.8
MCh-induced airway constriction response (Figure 5D) (guinea pig lung slices; 100 µM Fenoterol, -Log [MCh] 6.5): 82.5 and 88.6 and 98.9 and 92.2 and 82.0
MCh-induced airway constriction response (Figure 5D) (guinea pig lung slices; 100 µM Fenoterol, -Log [MCh] 7): 98.1 and 101.4 and 98.8 and 109.0 and 104.9
MCh-induced airway constriction response (Figure 5D) (guinea pig lung slices; 100 µM Fenoterol, -Log [MCh] 7.5): 106.4 and 100.0 and 110.6 and 99.9
MCh-induced airway constriction response (Figure 5D) (guinea pig lung slices; 100 µM Fenoterol, -Log [MCh] 8): 101.0 and 105.4 and 99.3 and 99.7
EC50 (guinea pig lung slices; read-out: MCh EC50, 1 μM Fenoterol): 370 ± 80 nM
EC50 (guinea pig lung slices; read-out: MCh EC50, 10 μM Fenoterol): 560 ± 30 nM
EC50 (guinea pig lung slices; read-out: MCh EC50, 100 μM Fenoterol): 1000 ± 150 nM
OVA-induced airway constriction response (Figure 6) ([1]; 0.1 µM Fenoterol, [OVA] 0.001 ng/ml): 100.0 and 98.0 and 100.9
OVA-induced airway constriction response (Figure 6) ([1]; 0.1 µM Fenoterol, [OVA] 0.01 ng/ml): 100.0 and 105.5 and 96.2 and 100.8
OVA-induced airway constriction response (Figure 6) ([1]; 0.1 µM Fenoterol, [OVA] 0.1 ng/ml): 100 and 99.0
OVA-induced airway constriction response (Figure 6) ([1]; 0.1 µM Fenoterol, [OVA] 1 ng/ml): 100.0 and 109.4 and 99.5 and 95.4
OVA-induced airway constriction response (Figure 6) ([1]; 0.1 µM Fenoterol, [OVA] 10 ng/ml): 109.1 and 98.9 and 69.5
OVA-induced airway constriction response (Figure 6) ([1]; 0.1 µM Fenoterol, [OVA] 100000 ng/ml): 0.0
OVA-induced airway constriction response (Figure 6) ([1]; 0.1 µM Fenoterol, [OVA] 1000000 ng/ml): 0.0
OVA-induced airway constriction response (Figure 6) ([1]; 1 µM Fenoterol, [OVA] 0.001 ng/ml): 103.2 and 100 and 98.0
OVA-induced airway constriction response (Figure 6) ([1]; 1 µM Fenoterol, [OVA] 0.01 ng/ml): 103.0 and 100.0 and 95.8
OVA-induced airway constriction response (Figure 6) ([1]; 1 µM Fenoterol, [OVA] 0.1 ng/ml): 97.3 and 96.9 and 98.7 and 100
OVA-induced airway constriction response (Figure 6) ([1]; 1 µM Fenoterol, [OVA] 1 ng/ml): 103.2 and 98.4 and 95.2 and 100.1 and 99.5
OVA-induced airway constriction response (Figure 6) ([1]; 1 µM Fenoterol, [OVA] 10 ng/ml): 101.0 and 98.4 and 92.9 and 100.7 and 99.7
OVA-induced airway constriction response (Figure 6) ([1]; 1 µM Fenoterol, [OVA] 100 ng/ml): 98.8 and 99.1 and 98.3 and 105.5 and 98.7
OVA-induced airway constriction response (Figure 6) ([1]; 1 µM Fenoterol, [OVA] 1000 ng/ml): 95.3 and 96.8 and 97.2 and 98.0
OVA-induced airway constriction response (Figure 6) ([1]; 1 µM Fenoterol, [OVA] 10000 ng/ml): 91.4 and 95.6 and 97.2 and 105.0 and 93.6
